Measurements from patent US20250312352A1, “GLP-1R MODULATING COMPOUNDS” (Gilead Sciences, Inc., priority 2021, published 2025).

How the values were obtained:
[1] = Pharmacokinetic (PK) studies, monkey oral PK; type: in vivo, Cynomolgus monkeys; details: for Tmax / AUC(0-t) / Cmax / bioavailability: Cynomolgus monkey, plasma; for Tmax / AUC(0-t) / Cmax: single oral dose 2 mg/kg (CE-1: 1 mg/kg); for AUC(0-t): read-out: AUC0-24 (Arbitrary units); for Cmax: read-out: Cmax (Arbitrary unit); for bioavailability: oral dose 2 mg/kg (CE-1: 1 mg/kg)
Experimental: Examples 54 and 253 were tested along with comparative examples CE-1 and CE-2.
Compounds CE-2, Example 54 or Example 253 were combined with a mixture of 10% NMP (v:v) and 90% PEG300 (v:v), and the mixture was stirred until a homogeneous solution was obtained (1 mg/mL final concentration of test article).
Compound CE-1 was combined with a mixture of 15% 2-hydroxypropyl-o-cyclodextrin (w:v) and 85% Mili-Q water (v:v), and the mixture was stirred until a homogeneous solution was obtained (0.5 mg/mL final concentration of test article).
Young adult non-naive Cynomolgus monkeys with weight about 2.5-5 kg (n=1-3/test article/route) were fasted overnight and then dosed with either CE-1 (at 1 mg test article per kg animal weight), CE-2 (at 2 mg test article per kg animal weight), Example 54 (at 2 mg test article per kg animal weight), or Example 253 (at 2 mg test article per kg animal weight). Food was supplied approximately 4 hours post dose and animals were provided with free access to water all the time. Animals were restrained at designated time points for blood sampling. Approximately 500 μL of blood samples was taken via cephalic or saphenous vein into EDTA-K2 tubes. For oral administration (PO): blood samples were generally collected pre-dose, and at 15 min, 30 min, 1 hr, 2 hr, 4 hr, 8 hr, 12 hr, and 24 hr time points after dosing. Blood was maintained on wet ice, in chilled cryoracks, or at approximately 5° C. prior to centrifugation to obtain plasma. Centrifugation was conducted within 1 hour of collection. Plasma (approximately 200 μL) was placed into a micronic tubes containing 4 μL of formic acid (the final concentration of formic acid in plasma was approximately 2%) and samples were vortex mixed. Samples were maintained on dry ice prior to storage at approximately −70° C.
LC-MS/MS assays were utilized to quantify the concentration of the test articles in plasma as follows.
50 μL plasma sample was mixed with 350 μL of ACN combined with an internal standard. The mixture was then vortexed for about 1-5 min, and centrifuged at about 4,000-5,800 rpm for about […]. An aliquot of 1 μL supernatant was used for LC-MS/MS analysis.
MS conditions: A Sciex API 6500 equipped with electrospray ionization in the positive ion selected reaction monitoring mode was used for detection.
HPLC conditions • Mobile Phase A: H2O-0.1% Formic Acid • Mobile Phase B: ACN-0.1% Formic Acid
• Column: Phenomenex Kinetex XBC18 (2.1×50 mm, 2.6 μm) with a flow rate of 1.20 mL/min • Column temperature: 60° C. • Retention time: approximately between 0.85 to 1.05 • min
Pharmacokinetics parameters, including area under the curve (AUC0-24), maximum plasma concentration (Cmax), time to reach maximum plasma concentration (Tma), oral bioavailability (F %), etc., were calculated using Dotmatics software in non-compartmental model.

[2] = target: T1, GLP-1R (Homo sapiens, UniProt P43220); assay: GLP-1R activation cAMP assay (Assay 1 or Assay 2); type: cell-based; details: cAMP increase in CHO cells stably expressing GLP-1R; compounds run on one of the two cAMP assays
T1 construct: host or cells: CHO cells
How it was run: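 EC50 values come from a sigmoidal fit of HTRF-detected cAMP rise versus log agonist concentration. GLP-1R-expressing CHO cells, equilibrated 1 h at 37 °C in HBSS with HEPES and BSA, received a 10-point compound dose series for 30 min before detection.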

T1 sequence (P43220 24-463): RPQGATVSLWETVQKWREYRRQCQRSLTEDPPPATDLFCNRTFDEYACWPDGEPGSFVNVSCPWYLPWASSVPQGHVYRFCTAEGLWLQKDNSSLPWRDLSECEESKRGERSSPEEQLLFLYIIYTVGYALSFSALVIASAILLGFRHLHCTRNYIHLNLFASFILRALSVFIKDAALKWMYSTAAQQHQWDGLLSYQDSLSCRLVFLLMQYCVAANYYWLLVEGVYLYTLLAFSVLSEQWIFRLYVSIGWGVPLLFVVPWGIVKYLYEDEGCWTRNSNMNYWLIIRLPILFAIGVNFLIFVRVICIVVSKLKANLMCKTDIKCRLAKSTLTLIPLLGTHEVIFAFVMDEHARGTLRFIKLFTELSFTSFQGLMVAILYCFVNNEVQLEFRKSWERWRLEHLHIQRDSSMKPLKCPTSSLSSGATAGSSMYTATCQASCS

Row | Tmax [1] [h] | AUC(0-t) [1] [µM·h] | Cmax [1] [µM] | bioavailability [1] [%] | EC50 [2] [nM] | plasma exposures after the 12 h period ([1]; single oral dose of 1 mg/kg, monkey, FIG. 1) | Compound
1 | 5.3 ± 2.3 | 6.39 ± 2.36 | 0.582 ± 0.296 | 55.7 ± 20.6 |  |  | O=C(O)c1cc(F)c2nc(Cc3cc(F)c(-c4cccc(OCc5ncc(C(F)(F)F)s5)n4)cc3F)n(C[C@@H]3CCO3)c2c1 [Example 253, (S)-2-(2,5-difluoro-4-(6-((5-(trifluoromethyl)thiazol-2-yl)methoxy)pyridin-2-yl)benzyl)-4-fluoro-1-(oxetan-2-ylmethyl)-1H-benzo[d]imidazole-6-carboxylic acid]
2 |  |  |  | 27.4 ± 12.9 |  |  | N#Cc1ccc(COc2cccc(-c3cc(F)c(Cc4nc5ccc(C(=O)O)cc5n4C[C@@H]4CCO4)cc3F)n2)c(F)c1 [Compound CE-2]
3 | 4.7 ± 1.2 | 14.2 ± 7.69 | 1.27 ± 0.628 | 89 ± 33 | 0.09 |  | O=C(O)c1ccc2nc(Cc3cc(F)c(-c4cccc(OCc5ncc(C(F)(F)F)s5)n4)cc3F)n(C[C@@H]3CCO3)c2c1 [Example 54, (S)-2-(2,5-difluoro-4-(6-((5-(trifluoromethyl)thiazol-2-yl)methoxy)pyridin-2-yl)benzyl)-1-(oxetan-2-ylmethyl)-1H-benzo[d]imidazole-6-carboxylic acid]

Second part, the compound before the results:

Row | Compound | Tmax [1] [h] | AUC(0-t) [1] [µM·h] | Cmax [1] [µM] | bioavailability [1] [%] | EC50 [2] [nM] | plasma exposures after the 12 h period ([1]; single oral dose of 1 mg/kg, monkey, FIG. 1)
4 | N#Cc1ccc(COc2cccc(C3CCN(Cc4nc5ccc(C(=O)O)cc5n4C[C@@H]4CCO4)CC3)n2)c(F)c1 [Compound CE-1] |  |  |  | 2.5 ± 0.2 |  | 
5 | N#Cc1ccc(COc2cccc(C3CCN(Cc4nc5ccc(C(=O)O)cc5n4C[C@@H]4CCO4)CC3)n2)c(F)c1 [CE-1, (S)-2-((4-(6-((4-cyano-2-fluorobenzyl)oxy)pyridin-2-yl)piperidin-1-yl)methyl)-1-(oxetan-2-ylmethyl)-1H-benzo[d]imidazole-6-carboxylic acid, reference compound] |  |  |  |  |  | below the detection limit
